# Results published in patent US5731286A, “Cyclic neurokinin A antagonists” (Merrell Pharmaceuticals, Inc., priority 1997, dated 1998).
# Tested on: rat urinary bladder
# Experiment: In situ rat urinary bladder preparation, NKA-induced bladder contraction
# Assay type: in vivo
# Description: FIG. 6. […] Continuous tracing shown for each animal.
# Rats, (female Sprague-Dawley, 150-200 g) were anesthetized with ketamine HCl (100 mg/kg i.p.) supplemented with urethane (1.2 g/kg i.p.). […] A needle was inserted into the apex of the bladder dome and saline was perfused through the bladder at a rate of 100 μl per minute. Bladder outflow was collected via a polyethylene cannula inserted into the urethra. Bladder contractions were monitored through a flow pressure transducer connected in series with the perfusion system. Test compounds were applied onto the bladder dome in 40-100 μl of saline or saline containing a minimum of DMSO. […] Antagonist was similarly applied onto the bladder 5 min before a repeated application of NKA. […] Amplitude (force) of contraction and 1-min time intervals were recorded continuously for each animal.
substance,measurement,setting,value
neurokinin A [NKA],Effect on bladder contraction when applied onto the dome of the exposed bladder,"anesthetized rats, 10 μg topical",sustained tonic contraction and an increase in frequency
same,Threshold concentration for contraction,"applied onto bladder dome, anesthetized rats",approximately 10 μg
same,Tachyphylaxis on repeated application,repeated application of 10 μg,did not result in any tachyphylaxis
